# Results reported in PubChem BioAssay AID256 (DTP/NCI, 2004).
# “And” between values parts separate entries of the source, which are not always exact repeats. Equal entries are not always repeated. Toxic doses and inconclusive results are not listed.
# Tested on: CD2F1 mice, L1210 leukemia ip, survival T/C
# Assay: NCI In Vivo Anticancer Drug Screen. Data for tumor model L1210 Leukemia (intraperitoneal) in CD2F1 (CDF1) mice
# Conditions: higher = longer survival
# How it was run: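 Ratio T/C, where T is the treated-group value and C the vehicle-dosed control value, from mice implanted with a transplantable tumor.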
# [1] = endpoint: mean survival time, dose: 50.0 mg/kg/injection, schedule: Q01DX009 (ip), vehicle: saline with Tween-80
# [2] = endpoint: mean survival time, dose: 100.0 mg/kg/injection, schedule: Q01DX001 (ip), vehicle: saline with Tween-80
# [3] = endpoint: mean survival time, dose: 100.0 mg/kg/injection, schedule: Q01DX009 (ip), vehicle: saline with Tween-80
# [4] = endpoint: mean survival time, dose: 200.0 mg/kg/injection, schedule: Q01DX001 (ip), vehicle: saline with Tween-80
# [5] = endpoint: mean survival time, dose: 200.0 mg/kg/injection, schedule: Q01DX009 (ip), vehicle: saline with Tween-80
# [6] = endpoint: mean survival time, dose: 400.0 mg/kg/injection, schedule: Q01DX001 (ip), vehicle: saline with Tween-80
# [7] = endpoint: mean survival time, dose: 100.0 mg/kg/injection, schedule: Q01DX001 (ip), vehicle: saline
# [8] = endpoint: mean survival time, dose: 200.0 mg/kg/injection, schedule: Q01DX001 (ip), vehicle: saline
# [9] = endpoint: mean survival time, dose: 400.0 mg/kg/injection, schedule: Q01DX009 (ip), vehicle: saline with Tween-80
# [10] = endpoint: mean survival time, dose: 100.0 mg/kg/injection, schedule: Q04DX003 (ip), vehicle: saline with Tween-80
# [11] = endpoint: mean survival time, dose: 200.0 mg/kg/injection, schedule: Q04DX003 (ip), vehicle: saline with Tween-80
# [12] = endpoint: mean survival time, dose: 400.0 mg/kg/injection, schedule: Q04DX003 (ip), vehicle: saline with Tween-80
smiles,measurement,setting,value
O=C1CC2OCCC3CN4CCC56c7ccccc7N1C5C2C3CC46 (stereo not drawn),T/C,"endpoint: mean survival time, dose: 75.0 mg/kg/injection, schedule: Q01DX001 (ip), vehicle: saline",106 % of control
same,T/C,"endpoint: mean survival time, dose: 150.0 mg/kg/injection, schedule: Q01DX001 (ip), vehicle: saline",101 % of control
CN(C)c1nc(N(C)C)nc(N(C)C)n1,T/C,"endpoint: mean survival time, dose: 12.5 mg/kg/injection, schedule: Q01DX009 (ip), vehicle: saline with Tween-80",93 % of control and 103 % of control
same,T/C,"endpoint: mean survival time, dose: 20.0 mg/kg/injection, schedule: Q01DX009 (ip), vehicle: Klucel (hydroxypropylcellulose) (HPC)",106 % of control
same,T/C,"endpoint: mean survival time, dose: 25.0 mg/kg/injection, schedule: Q01DX009 (ip), vehicle: saline with Tween-80",97 % of control and 102 % of control
same,T/C,"endpoint: mean survival time, dose: 40.0 mg/kg/injection, schedule: Q01DX009 (ip), vehicle: Klucel (hydroxypropylcellulose) (HPC)",102 % of control
same,T/C,"endpoint: mean survival time, dose: 50.0 mg/kg/injection, schedule: Q01DX001 (ip), vehicle: saline with Tween-80",96 % of control
same,T/C,[1],97 % of control and 100 % of control
same,T/C,"endpoint: mean survival time, dose: 80.0 mg/kg/injection, schedule: Q01DX009 (ip), vehicle: Klucel (hydroxypropylcellulose) (HPC)",106 % of control
same,T/C,[2],104 % of control
same,T/C,[3],96 % of control and 97 % of control
same,T/C,"endpoint: mean survival time, dose: 160.0 mg/kg/injection, schedule: Q01DX009 (ip), vehicle: Klucel (hydroxypropylcellulose) (HPC)",100 % of control
same,T/C,[4],97 % of control
same,T/C,[5],100 % of control and 103 % of control
same,T/C,[6],104 % of control
same,T/C,"endpoint: median survival time, dose: 8.0 mg/kg/injection, schedule: Q03HX024 (ip), vehicle: Klucel (hydroxypropylcellulose) (HPC)",97 % of control
same,T/C,"endpoint: median survival time, dose: 16.0 mg/kg/injection, schedule: Q03HX008 (ip), vehicle: Klucel (hydroxypropylcellulose) (HPC)",96 % of control
same,T/C,"endpoint: median survival time, dose: 16.0 mg/kg/injection, schedule: Q03HX016 (ip), vehicle: Klucel (hydroxypropylcellulose) (HPC)",96 % of control
same,T/C,"endpoint: median survival time, dose: 16.0 mg/kg/injection, schedule: Q03HX024 (ip), vehicle: Klucel (hydroxypropylcellulose) (HPC)",104 % of control
same,T/C,"endpoint: median survival time, dose: 32.0 mg/kg/injection, schedule: Q01DX009 (ip), vehicle: Klucel (hydroxypropylcellulose) (HPC)",108 % of control
same,T/C,"endpoint: median survival time, dose: 32.0 mg/kg/injection, schedule: Q03HX008 (ip), vehicle: Klucel (hydroxypropylcellulose) (HPC)",100 % of control
same,T/C,"endpoint: median survival time, dose: 32.0 mg/kg/injection, schedule: Q03HX016 (ip), vehicle: Klucel (hydroxypropylcellulose) (HPC)",100 % of control
same,T/C,"endpoint: median survival time, dose: 32.0 mg/kg/injection, schedule: Q03HX024 (ip), vehicle: Klucel (hydroxypropylcellulose) (HPC)",111 % of control
same,T/C,"endpoint: median survival time, dose: 64.0 mg/kg/injection, schedule: Q01DX009 (ip), vehicle: Klucel (hydroxypropylcellulose) (HPC)",107 % of control
same,T/C,"endpoint: median survival time, dose: 64.0 mg/kg/injection, schedule: Q04DX003 (ip), vehicle: Klucel (hydroxypropylcellulose) (HPC)",98 % of control
same,T/C,"endpoint: median survival time, dose: 128.0 mg/kg/injection, schedule: Q01DX001 (ip), vehicle: Klucel (hydroxypropylcellulose) (HPC)",97 % of control
same,T/C,"endpoint: median survival time, dose: 128.0 mg/kg/injection, schedule: Q01DX009 (ip), vehicle: Klucel (hydroxypropylcellulose) (HPC)",102 % of control
same,T/C,"endpoint: median survival time, dose: 128.0 mg/kg/injection, schedule: Q04DX003 (ip), vehicle: Klucel (hydroxypropylcellulose) (HPC)",109 % of control
same,T/C,"endpoint: median survival time, dose: 128.0 mg/kg/injection, schedule: Q08DX002 (ip), vehicle: Klucel (hydroxypropylcellulose) (HPC)",98 % of control
same,T/C,"endpoint: median survival time, dose: 256.0 mg/kg/injection, schedule: Q01DX001 (ip), vehicle: Klucel (hydroxypropylcellulose) (HPC)",98 % of control
same,T/C,"endpoint: median survival time, dose: 256.0 mg/kg/injection, schedule: Q04DX003 (ip), vehicle: Klucel (hydroxypropylcellulose) (HPC)",114 % of control
same,T/C,"endpoint: median survival time, dose: 256.0 mg/kg/injection, schedule: Q08DX002 (ip), vehicle: Klucel (hydroxypropylcellulose) (HPC)",98 % of control
O=C1c2ccccc2C(=O)c2cc(NS(=O)(=O)C(F)(F)F)ccc21,T/C,[7],96 % of control
same,T/C,[8],100 % of control
CC(=O)Nc1ccc(S(=O)(=O)/N=S(\C)c2ccc(C)cc2)cc1 (stereo not drawn),T/C,"endpoint: mean survival time, dose: 100.0 mg/kg/injection, schedule: Q01DX009 (ip), vehicle: Klucel (hydroxypropylcellulose) (HPC)",95 % of control
same,T/C,"endpoint: mean survival time, dose: 200.0 mg/kg/injection, schedule: Q01DX009 (ip), vehicle: Klucel (hydroxypropylcellulose) (HPC)",89 % of control
same,T/C,"endpoint: mean survival time, dose: 400.0 mg/kg/injection, schedule: Q01DX009 (ip), vehicle: Klucel (hydroxypropylcellulose) (HPC)",91 % of control
same,T/C,"endpoint: mean survival time, dose: 600.0 mg/kg/injection, schedule: Q01DX009 (ip), vehicle: Klucel (hydroxypropylcellulose) (HPC)",92 % of control
CC(=O)c1c(C)cc2cccc(OC3OC(CO)C(O)C(O)C3O)c2c1O (stereo not drawn) (tested in a mixture with another compound),T/C,"endpoint: mean survival time, dose: 100.0 mg/kg/injection, schedule: Q04DX003 (ip), vehicle: saline",103 % of control
same,T/C,"endpoint: mean survival time, dose: 200.0 mg/kg/injection, schedule: Q04DX003 (ip), vehicle: saline",104 % of control
same,T/C,"endpoint: mean survival time, dose: 400.0 mg/kg/injection, schedule: Q04DX003 (ip), vehicle: saline",107 % of control
Cc1ccc2nc(-c3cccc([N+](=O)[O-])c3)oc(=O)c2c1,T/C,[3],97 % of control
same,T/C,[5],96 % of control
same,T/C,[9],94 % of control
O=C(O/N=C(\c1ccccc1)c1cccs1)N(c1ccccc1)c1ccccc1,T/C,"endpoint: mean survival time, dose: 100.0 mg/kg/injection, schedule: Q01DX001 (ip), vehicle: other",92 % of control
same,T/C,"endpoint: mean survival time, dose: 200.0 mg/kg/injection, schedule: Q01DX001 (ip), vehicle: other",98 % of control
same,T/C,"endpoint: mean survival time, dose: 400.0 mg/kg/injection, schedule: Q01DX001 (ip), vehicle: other",92 % of control
O=c1ccn(C2OC(CO)C(O)C2O)c(=O)[nH]1 (stereo not drawn),T/C,"endpoint: mean survival time, dose: 12.5 mg/kg/injection, schedule: Q01DX005 (ip), vehicle: Klucel (hydroxypropylcellulose) (HPC)",103 % of control
same,T/C,"endpoint: mean survival time, dose: 25.0 mg/kg/injection, schedule: Q01DX005 (ip), vehicle: Klucel (hydroxypropylcellulose) (HPC)",101 % of control
same,T/C,"endpoint: mean survival time, dose: 50.0 mg/kg/injection, schedule: Q01DX005 (ip), vehicle: Klucel (hydroxypropylcellulose) (HPC)",101 % of control
same,T/C,"endpoint: mean survival time, dose: 100.0 mg/kg/injection, schedule: Q01DX005 (ip), vehicle: Klucel (hydroxypropylcellulose) (HPC)",110 % of control
same,T/C,"endpoint: mean survival time, dose: 200.0 mg/kg/injection, schedule: Q01DX005 (ip), vehicle: Klucel (hydroxypropylcellulose) (HPC)",105 % of control
C=CCN(CC=C)CCSC(=S)NCCOC,T/C,[1],97 % of control
same,T/C,[3],113 % of control
same,T/C,[5],97 % of control
O=C(Nc1c(Cl)cccc1Cl)OCCOc1ccc(Cl)cc1,T/C,[1],94 % of control
same,T/C,[3],105 % of control
same,T/C,[5],105 % of control
Cc1c2c(cc3c1CCC1(C)C3CCC1C(C)/C=C/C(C)C(C)C)CCC=C2 (stereo not drawn),T/C,[2],95 % of control
same,T/C,[4],90 % of control
same,T/C,[6],86 % of control
CCCCN(CCCC)CC(C)(O)c1cc(-c2ccc(Cl)cc2)nc2c(C)cc(C)cc12 (stereo not drawn),T/C,[10],87 % of control
same,T/C,[11],89 % of control
Clc1ccc(OCCOc2ccc(Cl)cc2Cl)c(Cl)c1,T/C,[10],95 % of control
same,T/C,[11],106 % of control
same,T/C,[12],100 % of control
O=C1c2ccccc2C(=O)c2c1cccc2S(=O)(=O)O,T/C,[4],97 % of control
CCCCCCCCCCCCCCCCOS(=O)(=O)O,T/C,"endpoint: mean survival time, dose: 37.5 mg/kg/injection, schedule: Q01DX009 (ip), vehicle: saline",98 % of control
same,T/C,"endpoint: mean survival time, dose: 75.0 mg/kg/injection, schedule: Q01DX009 (ip), vehicle: saline",97 % of control
same,T/C,"endpoint: mean survival time, dose: 150.0 mg/kg/injection, schedule: Q01DX009 (ip), vehicle: saline",98 % of control
O=C(O)C(=O)O.O=C(O)C(=O)O.O=C(O)C(=O)O.[Co],T/C,"endpoint: mean survival time, dose: 50.0 mg/kg/injection, schedule: Q04DX002 (ip), vehicle: saline",93 % of control
O=C1NC(=O)C2(CCN(Cc3ccccc3)CC2)N1,T/C,[2],104 % of control
same,T/C,[4],101 % of control
same,T/C,[6],101 % of control
NC1=CC(=O)c2ccccc2C1=O,T/C,[1],96 % of control
same,T/C,[3],100 % of control
O=C(O)c1ccccc1NCNc1ccccc1C(=O)O,T/C,[10],100 % of control
same,T/C,[11],93 % of control
same,T/C,[12],110 % of control
Cc1ccc([N+](=O)[O-])cc1NC(=O)COc1ccc(Cl)cc1,T/C,[10],98 % of control
same,T/C,[11],94 % of control
same,T/C,[12],90 % of control
NC(=S)Nc1ccc(C(=O)O)cc1,T/C,[3],96 % of control
same,T/C,[10],93 % of control
same,T/C,[5],100 % of control
same,T/C,[11],94 % of control
same,T/C,[9],86 % of control
same,T/C,[12],90 % of control
S=c1[nH]ncn1/N=C/c1ccccc1Cl,T/C,[10],95 % of control
same,T/C,[11],101 % of control
same,T/C,[12],89 % of control
CC(C)c1cc2ccccc2s1,T/C,[7],96 % of control
same,T/C,[8],102 % of control
O=NN(CCCl)C(=O)Nc1cc(NC(=O)N(CCCl)N=O)cc(C(=O)O)c1,T/C,"endpoint: mean survival time, dose: 10.0 mg/kg/injection, schedule: Q04DX003 (ip), vehicle: saline with Tween-80",186 % of control
same,T/C,"endpoint: mean survival time, dose: 20.0 mg/kg/injection, schedule: Q04DX003 (ip), vehicle: saline with Tween-80",212 % of control
COc1cc(OC)c(NC(=O)OCCSc2ccc(Cl)cc2)cc1Cl,T/C,[1],92 % of control
same,T/C,[3],92 % of control
same,T/C,[5],92 % of control
